Results reported in patent US20180008587A1, “THIOHYDANTOIN ANDROGEN RECEPTOR ANTAGONISTS FOR THE TREATMENT OF CANCER” (Jaressen Pharmaceutica NV, priority 2016, published 2018).
Numbering of substitutions follows the chain as printed. Read-outs that look alike come from different tables or passages of the source.

Key:
Assay type in all cases: cell-based
[1] = target: T1, F876L mutant Androgen Receptor (AR-F876L) (Homo sapiens, UniProt P10275, F877L); experiment: LNCaP-AR-F876L ANT reporter assay (ARE firefly luciferase, antagonist mode); details: for Emax: read-out: LNCaP-AR-F876L ANT MAX % Inh; for IC50: read-out: LNCaP-AR-F876L ANT pIC50 (converted)
T1 construct: expressed in transfected cells; host or cells: LNCaP (LNCaP F876L)
T1 sequence (P10275 1-920 F877L): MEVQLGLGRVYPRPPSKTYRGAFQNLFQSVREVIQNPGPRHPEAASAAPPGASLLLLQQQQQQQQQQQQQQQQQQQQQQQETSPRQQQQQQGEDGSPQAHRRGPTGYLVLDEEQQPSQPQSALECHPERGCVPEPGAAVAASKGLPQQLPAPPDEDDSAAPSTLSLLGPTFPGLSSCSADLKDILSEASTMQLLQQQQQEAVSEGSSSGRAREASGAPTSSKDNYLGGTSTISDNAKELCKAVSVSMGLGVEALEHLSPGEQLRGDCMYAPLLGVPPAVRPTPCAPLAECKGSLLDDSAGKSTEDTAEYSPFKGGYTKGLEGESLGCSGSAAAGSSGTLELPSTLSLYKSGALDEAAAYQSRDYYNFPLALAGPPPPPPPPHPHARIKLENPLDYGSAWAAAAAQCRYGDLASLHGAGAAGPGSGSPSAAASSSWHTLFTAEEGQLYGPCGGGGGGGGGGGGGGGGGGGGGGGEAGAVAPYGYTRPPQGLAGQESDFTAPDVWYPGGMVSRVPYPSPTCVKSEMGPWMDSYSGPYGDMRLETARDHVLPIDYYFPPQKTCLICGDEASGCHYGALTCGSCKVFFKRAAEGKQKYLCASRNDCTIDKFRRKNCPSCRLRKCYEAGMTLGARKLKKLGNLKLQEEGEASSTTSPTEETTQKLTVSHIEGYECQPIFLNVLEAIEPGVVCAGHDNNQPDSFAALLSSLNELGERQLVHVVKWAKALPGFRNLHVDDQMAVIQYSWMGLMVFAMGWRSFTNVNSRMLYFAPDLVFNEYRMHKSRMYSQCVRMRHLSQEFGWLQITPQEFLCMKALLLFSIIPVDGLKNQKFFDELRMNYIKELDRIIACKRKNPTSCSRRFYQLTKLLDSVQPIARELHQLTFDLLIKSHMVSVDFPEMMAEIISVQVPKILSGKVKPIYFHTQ
Outline: (§1)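 LNCaP cells stably expressing wild-type or F876L AR (puromycin-selected pooled populations) were cultured in charcoal-stripped serum medium. In antagonist mode, agonist challenge was 400 pM for wild-type and 600 pM for F876L.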

[2] = target: T2, wild-type Androgen Receptor (AR-wt) (Homo sapiens, UniProt P10275); experiment: LNCaP-AR-wt AG reporter assay (ARE firefly luciferase, agonist mode); details: for Emax: read-out: LNCaP-AR-wt AG MAX % Stim
T2 construct: expressed in transfected cells; host or cells: LNCaP (LNCaP AR (cs))
T2 sequence (P10275 1-920): T1 sequence (P10275 1-920 F877L) with L877F
Outline: (§2)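 Read-out is luciferase luminescence taken 1 h after Steady-Glo addition, following 20-24 h compound exposure at 37 °C in LNCaP pools stably carrying wild-type or F876L AR. Cells were grown in charcoal-stripped serum. Antagonist wells received agonist at 400 pM (WT) or 600 pM (F876L).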

[3] = target: T1, F876L mutant Androgen Receptor (AR-F876L); experiment: LNCaP-AR-F876L AG reporter assay (ARE firefly luciferase, agonist mode); details: for Emax: read-out: LNCaP-AR-F876L AG MAX % Stim
Outline: as §2

[4] = target: T2, wild-type Androgen Receptor (AR-wt); experiment: LNCaP-AR-wt ANT reporter assay (ARE firefly luciferase, antagonist mode); details: for IC50: antagonist mode, 400 pM R-1881 challenge, −Log10(IC50 [Molar]), read-out: LNCaP-AR-wt ANT pIC50 (converted); for Emax: read-out: LNCaP-AR-wt ANT MAX % Inh
Outline: as §1

[5] = maximum % inhibition of R1881 control response over tested concentration range
[6] = agonist mode, −Log10(EC50 [Molar]), read-out: LNCaP-AR-wt AG pEC50 (converted)
[7] = maximum % stimulation (agonist response) over tested concentration range
[8] = agonist mode, −Log10(EC50 [Molar]), read-out: LNCaP-AR-F876L AG pEC50 (converted)

Compound	Emax [1, 5] [%]	IC50 [1] [nM]	EC50 [2, 6] [nM]	Emax [2, 7] [%]	EC50 [3, 8] [nM]	Emax [3, 7] [%]	IC50 [4] [nM]	Emax [4, 5] [%]	Emax [1] [%]	EC50 [2] [nM]	Emax [2] [%]	EC50 [3] [nM]	Emax [3] [%]	Emax [4] [%]
N#Cc1ncc(N2C(=O)C3(CCC3)N(c3cccc(CO)c3)C2=S)cc1C(F)(F)F [Cpd 81, 5-[8-[3-(hydroxymethyl)phenyl]-5-oxo-7-thioxo-6,8-diazaspiro[3.4]octan-6-yl]-3-(trifluoromethyl)pyridine-2-carbonitrile]		776					708		100	> 15100	0.7	> 15100	1.2	95.9
CCOC(=O)CCCNC(=O)c1ccc(N2C(=S)N(c3cnc(C#N)c(C(F)(F)F)c3)C(=O)C23CCC3)cc1F [Cpd 82, ethyl 4-[[4-[6-[6-cyano-5-(trifluoromethyl)-3-pyridyl]-5-oxo-7-thioxo-6,8-diazaspiro[3.4]octan-8-yl]-2-fluoro-benzoyl]amino]butanoate]	95.5	437	> 15100	0	> 15100	1.2	363	103						
Cc1cc(N2C(=O)C3(CCC3)N(c3ccc(C(=O)Nc4ccc(F)cc4)c(F)c3)C2=S)cnc1C#N [Cpd 84, 4-[6-(6-cyano-5-methyl-3-pyridyl)-5-oxo-7-thioxo-6,8-diazaspiro[3.4]octan-8-yl]-2-fluoro-N-(4-fluorophenyl)benzamide]	91.9	479	> 15100	1	> 15100	1.3	912	87.8						
Cc1cc(N2C(=O)C3(CCC3)N(c3ccc(-c4ccco4)cc3)C2=S)cnc1C#N [Cpd 86, 5-[8-[4-(2-furyl)phenyl]-5-oxo-7-thioxo-6,8-diazaspiro[3.4]octan-6-yl]-3-methyl-pyridine-2-carbonitrile]	93.3	209	> 15100	0.6	> 15100	1.3	257	91.7						
N#Cc1ncc(N2C(=O)C3(CCC3)N(c3ccc(Oc4cncnc4)cc3)C2=S)cc1C(F)(F)F [Cpd 88, 5-[5-oxo-8-(4-pyrimidin-5-yloxyphenyl)-7-thioxo-6,8-diazaspiro[3.4]octan-6-yl]-3-(trifluoromethyl)pyridine-2-carbonitrile]		138					631		87.3	> 15100	0.7	> 15100	0.7	97.2
N#Cc1ncc(N2C(=O)C3(CCC3)N(c3ccc(OCCN4CCCCC4)cc3F)C2=S)cc1C(F)(F)F [Cpd 91, 5-[8-[2-fluoro-4-[2-(1-piperidyl)ethoxy]phenyl]-5-oxo-7-thioxo-6,8-diazaspiro[3.4]octan-6-yl]-3-(trifluoromethyl)pyridine-2-carbonitrile]	98.6	302	> 15100	1.1	> 15100	1.4	537	98.5						
N#Cc1ncc(N2C(=O)C3(CCC3)N(c3ccc4[nH]ncc4c3)C2=S)cc1C(F)(F)F [Cpd 92, 5-[8-(1H-indazol-5-yl)-5-oxo-7-thioxo-6,8-diazaspiro[3.4]octan-6-yl]-3-(trifluoromethyl)pyridine-2-carbonitrile]		257					631		98.2	> 15100	2.8	> 15100	1.3	94.7
Cc1cc(N2C(=O)C3(CCC3)N(c3ccc(-c4cncnc4)cc3)C2=S)cnc1C#N [Cpd 93, 3-methyl-5-[5-oxo-8-(4-pyrimidin-5-ylphenyl)-7-thioxo-6,8-diazaspiro[3.4]octan-6-yl]pyridine-2-carbonitrile]		234					407		100	> 15100	0.9	> 15100	0.8	100

Second part, led by results:

Emax [1, 5] [%]	IC50 [1] [nM]	EC50 [2, 6] [nM]	Emax [2, 7] [%]	EC50 [3, 8] [nM]	Emax [3, 7] [%]	IC50 [4] [nM]	Emax [4, 5] [%]	Compound	Emax [1] [%]	EC50 [2] [nM]	Emax [2] [%]	EC50 [3] [nM]	Emax [3] [%]	Emax [4] [%]
95.4	427	> 15100	0.4	> 15100	1.2	891	100	N#Cc1ncc(N2C(=O)C3(CCC3)N(c3ccc(C(N)=O)c(F)c3)C2=S)cc1C(F)(F)F [Cpd 80, 4-[6-[6-cyano-5-(trifluoromethyl)-3-pyridyl]-5-oxo-7-thioxo-6,8-diazaspiro[3.4]octan-8-yl]-2-fluoro-benzamide]						
99.5	1000	> 15100	0.1	> 15100	0.5	2240	98.8	Cc1cc(N2C(=O)C3(CCC3)N(c3ccc(OC4CCNCC4)cc3)C2=S)cnc1C#N [Cpd 83, 3-methyl-5-[5-oxo-8-[4-(4-piperidyloxy)phenyl]-7-thioxo-6,8-diazaspiro[3.4]octan-6-yl]pyridine-2-carbonitrile]						
96.2	437	> 15100	0.3	> 15100	1.4	631	101	N#Cc1ncc(N2C(=O)C3(CCC3)N(c3ccc(C4CCOCC4)cc3)C2=S)cc1C(F)(F)F [Cpd 89, 5-[5-oxo-8-(4-tetrahydropyran-4-ylphenyl)-7-thioxo-6,8-diazaspiro[3.4]octan-6-yl]-3-(trifluoromethyl)pyridine-2-carbonitrile]						
98.6	631	> 15100	0.5	> 15100	1.4	513	100	N#Cc1ncc(N2C(=O)C3(CCC3)N(c3cccc(F)c3)C2=S)cc1C(F)(F)F [Cpd 90, 5-[8-(3-fluorophenyl)-5-oxo-7-thioxo-6,8-diazaspiro[3.4]octan-6-yl]-3-(trifluoromethyl)pyridine-2-carbonitrile]						
